Non-standard residues stand in square brackets, D forms with d. No end group written: not given here. Nle = CCCC[C@H](N)C(=O)O
How the values were obtained:
B16-F0 murine melanoma = test: Primary tumor melanoma cancer model; format: in vivo, C57BL/6 mice; settings: male C57 mice, Elvax pellet intramuscular, 21 μg/kg/day
[1] = test system: +SA murine mammary cancer cells; test: Angiogenesis-related gene microarray of +SA murine mammary tumors; format: in vivo, Balb/c mice; settings: 28 days intraperitoneal osmotic pump, 1 mg/kg/day
Description: Angiotensin-like factor Norleual (COMPOUND 2) was tested for its ability to modulate angiogenic genes in murine mammary tumors. Briefly, Balb/c mice grafted with +SA murine mammary cancer cells were treated with Compound 2. After 28 days of intraperitoneal administration via an osmotic pump (at a dose of 1 mg/kg/day), primary tumors were harvested and RNA was collected. Transcriptional activities of 96 angiogenesis-related genes were assessed using gene microarrays.

MDCK cells = test: c-Met/HGF stimulated MDCK cell proliferation (MTT); format: cell-based, canine; settings: HGF 10 ng/ml, COMPOUND 2 10^−6M to 10^−14M, four days
Description: Thereafter, 10 ng/ml of HGF alone and with the indicated concentrations of Norleual in a 1% FBS DMEM were added to the cells. The cells were cultured under these conditions for four days. On the fourth day, the treatment media was aspirated and replaced with 5 mg/ml of MTT reagent in 0.1 M glycine buffer (Invitrogen). The MTT reagent was incubated with the cells for four hours at 37° C. before adding DMSO to solubilize the cells and record the MTT absorbance on a plate reader. The controls were treated as background and subtracted from all of the treatments to determine the increase in proliferation due solely to HGF treatment. Differences between the treatments were determined using one-way ANOVA with Bonferroni's post-hoc analysis (Prism statistical analysis software). * indicate p<0.05 vs. HGF treatment. N=6, mean+/−SEM. […] Madin-Darby Canine Kidney (MDCK) cells were plated in the wells of a 96 well plate in 100 μl of complete Dulbecco's Modified Eagle's Medium (DMEM). The cells were serum starved for 24 hours to induce quiescence. […] Absorbance of the cleaved substrate was quantitated on a Biotek Synergy HT 2 plate reader according to the manufacturer's instructions. […] The data was analyzed with Prism® (GraphPad, San Diego, Calif.) statistical analysis software. * indicates p<0.01 vs. HGF treatment by Tukey's post-hoc analysis. […]

[2] = test system: +SA WAZ-2T mouse mammary carcinoma cells; test: Orthotopic +SA WAZ-2T mammary carcinoma model; format: in vivo, Balb/c mice
Description: This Example describes Norleaul effects in a mouse model of breast cancer in which animals were orthotopically injected with +SA WAZ-2T mouse mammary carcinoma cells (5×10^5) into the mammary fat pad of 11-week old female Balb/c mice. The +SA cell line was chosen due to its aggressive nature and ability to form highly vascularized tumors with 100% incidence per injection (Danielson et al., 1986). NORLEUAL (SEQ ID NO:43) was delivered via Elvax slow release pellets at doses of 0.3 mg/pellet, 0.03 mg/pellet, and 0.003 mg/pellet, implanted into the mammary glands immediately prior to tumor cell injection. These pellets provided an estimated continuous release of NORLEUAL at doses equivalent to 37.5 μg/kg/day, 3.75 μg/kg/day, and 0.375 μg/kg/day, respectively (based on in vitro release assays of pellets, data not shown). […] Tumor growth was monitored every 2-3 days, based on caliper measurements of the two longest diameters and calculating tumor volume.

[3] = Chronic treatment: body weight, DXA body composition and pathology; format: in vivo, C57BL/6 mice
Description: Twenty-four five-week old C57BL/6 male mice were equally and randomly assigned to two groups. One group was assigned as control and the other treated. Treated mice were administered intermuscular (IM) injections of Norleual at 21 μg/kg/day, (40 μl injectable volume) every 48 hours for the duration of one hundred and one days. Injection sites were alternated between left and right gluteus medius. BD Ultra-Fine 3/10 cc insulin syringes were used as delivery apparatus. Mice were housed two per cage and had unlimited access to food and water. Mice were monitored daily for signs of morbidity. Mice were also weighed on a weekly basis. C57/BL6 mice were treated either with vehicle control or with Norleual chronically for 101 days.
To assess body composition of the mice, the Comparative Orthopedic Research Laboratory at the Washington State University Veterinary School was utilized. A Hologic QDR4500A fan beam dual-energy X-ray absorptiometer (DXA, Hologic Inc., Bedford, Mass.) was used to assess the lean body mass (muscle), fat, and bone composition of each mouse on day one hundred one of the experiment. Mice were sacrificed and DXA scans were performed. Due to the volume limitations of the DXA instrument and to permit time for gross pathology, half of the mice were sacrificed and analyzed on day 101. The remaining mice were sacrificed and analyzed 22 hours later. Control and treated mice were split evenly among the two sacrifice episodes. Data were collected and the control group was compared to the Norleual treated group by two-tailed student's t-tests using InStat software (GraphPad, San Diego, Calif.). Figures were created using GraphPad Prism software.
Gross pathology and microscopic pathological evaluation on autopsy tissue were performed in blinded fashion on animals following sacrifice, with attention to multiple organs.

Nle-Tyr-Leu-ψ-His-Pro-Phe ([Nle]YLHPF; also: reduced peptide bond psi(CH2NH2) between Leu and His) [Norleual]
Primary B16-F0 murine melanoma growth (B16-F0 murine melanoma): inhibited | Change in gene expression versus control: Adamts 1, CD36, Connective tissue growth factor, PECAM 1, Cxcl 4, restin, Ccl 2, TNF-α, VEGF-α, VEGF-β [1]: at least five-fold | HGF stimulated MDCK cellular proliferation (MDCK cells): attenuation | HGF stimulated MDCK cellular proliferation (MDCK cells; listed as Compound 2): inhibited | Tumor volume ([2]; 0.003 mg/pellet, n=6): 112.7±61 mm^3 | Tumor mean vessel count/high power field (Factor VIII staining) ([2]; 0.3 mg/pellet, n=5, control 27.8±3): 3.0±0.9 | Delay in onset of palpable tumor mass ([2]; 0.3 mg/pellet, n=6, control 7 day lag): up to 21 days | Inhibition of tumor volume compared to control ([2]; most effective dose, 0.3 mg/pellet): 97% | Visible vascularization of tumors removed at conclusion ([2]; treated tumors): total lack of visible vascularization | Visual inspection of animals versus control ([3]; 101 days treatment): visibly less bulky | Scale measured weights versus control mice ([3]; IM 21 μg/kg/day every 48 hours, day 101, p=0.0130): significantly lower | Distribution of lipid vacuoles in the liver relative to control animals ([3]; autopsy tissue, blinded pathology): marked reduction | DXA measured bone mineral density versus control mice ([3]; day 101): not statistically significant | Percent fat versus control mice (DXA) ([3]; day 101, p<0.0001): significantly lower | DXA measured mass versus control mice ([3]; day 101, p=0.0146): significantly lower | DXA measured area versus control mice ([3]; day 101, p=0.023): significantly lower | Lean body mass+bone mineral content (BMC) versus control mice (DXA) ([3]; day 101, p=0.18): not significantly different

From patent publication US8236761B2, “C-Met receptor regulation by angiotensin IV (AT4) receptor ligands” (Washington State University Research Foundation, priority 2006, dated 2012)
